Measurements from ChEMBL document CHEMBL5465560, “Selectivity Literature for EUbOPEN Chemogenomic Library” (2024).

How the values were obtained:
[1] = target: T1, Serine/threonine-protein kinase BRSK2 (Homo sapiens) (UniProt Q8IWQ3); assay: Selectivity interaction (KinomeScan (DiscoverX)) EUB0000666a BRSK2; details: at 10 µM
T1 sequence (whole entry): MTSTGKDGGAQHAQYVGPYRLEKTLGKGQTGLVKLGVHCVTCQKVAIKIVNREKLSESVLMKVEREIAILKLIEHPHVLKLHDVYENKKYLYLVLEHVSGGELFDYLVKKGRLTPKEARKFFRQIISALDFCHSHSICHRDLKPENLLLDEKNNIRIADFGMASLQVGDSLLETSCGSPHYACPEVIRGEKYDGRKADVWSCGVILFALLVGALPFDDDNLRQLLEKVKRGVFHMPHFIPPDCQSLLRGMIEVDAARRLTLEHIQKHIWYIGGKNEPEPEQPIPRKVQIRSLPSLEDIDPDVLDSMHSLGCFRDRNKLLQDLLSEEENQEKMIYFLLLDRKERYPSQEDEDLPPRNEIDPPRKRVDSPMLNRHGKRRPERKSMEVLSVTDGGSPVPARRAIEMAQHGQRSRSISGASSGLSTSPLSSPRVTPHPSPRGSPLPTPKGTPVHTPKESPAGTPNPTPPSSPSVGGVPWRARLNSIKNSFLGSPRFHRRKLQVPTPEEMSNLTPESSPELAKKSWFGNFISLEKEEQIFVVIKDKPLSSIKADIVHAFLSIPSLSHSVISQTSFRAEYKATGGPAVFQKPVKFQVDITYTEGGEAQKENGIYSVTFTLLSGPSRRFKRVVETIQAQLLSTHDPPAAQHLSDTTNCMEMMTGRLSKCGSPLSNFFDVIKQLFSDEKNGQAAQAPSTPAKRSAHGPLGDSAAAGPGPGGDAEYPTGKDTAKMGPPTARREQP

[2] = target: Tyrosine-protein kinase Lyn (Homo sapiens, UniProt P07948); assay: Selectivity interaction (KinomeScan (DiscoverX)) EUB0000666a LYN; details: at 10 µM
Sequence of Tyrosine-protein kinase Lyn (P07948 2-512 limits assumed): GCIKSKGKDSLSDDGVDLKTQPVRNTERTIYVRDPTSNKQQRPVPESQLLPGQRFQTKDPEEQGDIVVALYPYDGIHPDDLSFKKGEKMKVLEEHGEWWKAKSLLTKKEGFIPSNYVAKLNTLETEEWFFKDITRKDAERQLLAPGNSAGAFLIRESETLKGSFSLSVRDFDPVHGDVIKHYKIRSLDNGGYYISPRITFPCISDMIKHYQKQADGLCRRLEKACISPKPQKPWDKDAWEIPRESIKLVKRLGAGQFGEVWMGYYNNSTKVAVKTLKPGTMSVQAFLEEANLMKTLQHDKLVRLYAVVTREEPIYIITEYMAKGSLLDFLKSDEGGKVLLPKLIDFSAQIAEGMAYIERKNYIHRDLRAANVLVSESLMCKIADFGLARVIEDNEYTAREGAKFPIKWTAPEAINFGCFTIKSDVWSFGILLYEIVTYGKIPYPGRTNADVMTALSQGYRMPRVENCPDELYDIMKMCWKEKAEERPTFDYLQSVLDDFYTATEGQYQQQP

Ephrin type-A receptor 4 = Ephrin type-A receptor 4 (Homo sapiens, UniProt P54764); assay: Selectivity interaction (KinomeScan (DiscoverX)) EUB0001079a EPHA4; details: at 1 µM
Sequence of Ephrin type-A receptor 4 (P54764 whole entry): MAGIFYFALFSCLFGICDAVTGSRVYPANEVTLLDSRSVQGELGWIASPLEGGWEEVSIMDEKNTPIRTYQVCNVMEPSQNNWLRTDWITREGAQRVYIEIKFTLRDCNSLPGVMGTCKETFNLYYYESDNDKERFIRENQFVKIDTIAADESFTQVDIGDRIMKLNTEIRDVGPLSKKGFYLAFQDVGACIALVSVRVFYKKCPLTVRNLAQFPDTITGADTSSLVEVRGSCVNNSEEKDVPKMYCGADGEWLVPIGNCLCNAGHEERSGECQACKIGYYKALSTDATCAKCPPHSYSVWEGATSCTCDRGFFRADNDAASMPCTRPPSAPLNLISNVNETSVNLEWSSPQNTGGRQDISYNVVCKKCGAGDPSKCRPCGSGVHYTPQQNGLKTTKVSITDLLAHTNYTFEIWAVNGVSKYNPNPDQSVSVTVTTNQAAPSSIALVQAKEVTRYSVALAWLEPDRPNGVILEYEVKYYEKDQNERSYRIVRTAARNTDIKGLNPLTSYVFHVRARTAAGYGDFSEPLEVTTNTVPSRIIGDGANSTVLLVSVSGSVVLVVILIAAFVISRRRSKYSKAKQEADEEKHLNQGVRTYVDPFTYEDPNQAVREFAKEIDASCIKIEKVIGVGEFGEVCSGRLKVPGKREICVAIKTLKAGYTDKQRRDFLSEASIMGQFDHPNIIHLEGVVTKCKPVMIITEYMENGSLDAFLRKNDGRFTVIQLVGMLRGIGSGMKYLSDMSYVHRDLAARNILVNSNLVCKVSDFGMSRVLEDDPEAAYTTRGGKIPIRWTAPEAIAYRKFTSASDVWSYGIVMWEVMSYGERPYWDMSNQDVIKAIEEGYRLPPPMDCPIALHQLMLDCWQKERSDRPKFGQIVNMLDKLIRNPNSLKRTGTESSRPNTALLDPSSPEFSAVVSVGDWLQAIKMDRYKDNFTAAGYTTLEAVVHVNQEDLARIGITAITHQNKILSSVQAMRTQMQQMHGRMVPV

[3] = target: STE20-like serine/threonine-protein kinase (Homo sapiens, UniProt Q9H2G2); assay: Selectivity interaction (KinomeScan (DiscoverX)) EUB0001079a SLK; details: at 1 µM
Sequence of STE20-like serine/threonine-protein kinase (Q9H2G2 whole entry, looked up): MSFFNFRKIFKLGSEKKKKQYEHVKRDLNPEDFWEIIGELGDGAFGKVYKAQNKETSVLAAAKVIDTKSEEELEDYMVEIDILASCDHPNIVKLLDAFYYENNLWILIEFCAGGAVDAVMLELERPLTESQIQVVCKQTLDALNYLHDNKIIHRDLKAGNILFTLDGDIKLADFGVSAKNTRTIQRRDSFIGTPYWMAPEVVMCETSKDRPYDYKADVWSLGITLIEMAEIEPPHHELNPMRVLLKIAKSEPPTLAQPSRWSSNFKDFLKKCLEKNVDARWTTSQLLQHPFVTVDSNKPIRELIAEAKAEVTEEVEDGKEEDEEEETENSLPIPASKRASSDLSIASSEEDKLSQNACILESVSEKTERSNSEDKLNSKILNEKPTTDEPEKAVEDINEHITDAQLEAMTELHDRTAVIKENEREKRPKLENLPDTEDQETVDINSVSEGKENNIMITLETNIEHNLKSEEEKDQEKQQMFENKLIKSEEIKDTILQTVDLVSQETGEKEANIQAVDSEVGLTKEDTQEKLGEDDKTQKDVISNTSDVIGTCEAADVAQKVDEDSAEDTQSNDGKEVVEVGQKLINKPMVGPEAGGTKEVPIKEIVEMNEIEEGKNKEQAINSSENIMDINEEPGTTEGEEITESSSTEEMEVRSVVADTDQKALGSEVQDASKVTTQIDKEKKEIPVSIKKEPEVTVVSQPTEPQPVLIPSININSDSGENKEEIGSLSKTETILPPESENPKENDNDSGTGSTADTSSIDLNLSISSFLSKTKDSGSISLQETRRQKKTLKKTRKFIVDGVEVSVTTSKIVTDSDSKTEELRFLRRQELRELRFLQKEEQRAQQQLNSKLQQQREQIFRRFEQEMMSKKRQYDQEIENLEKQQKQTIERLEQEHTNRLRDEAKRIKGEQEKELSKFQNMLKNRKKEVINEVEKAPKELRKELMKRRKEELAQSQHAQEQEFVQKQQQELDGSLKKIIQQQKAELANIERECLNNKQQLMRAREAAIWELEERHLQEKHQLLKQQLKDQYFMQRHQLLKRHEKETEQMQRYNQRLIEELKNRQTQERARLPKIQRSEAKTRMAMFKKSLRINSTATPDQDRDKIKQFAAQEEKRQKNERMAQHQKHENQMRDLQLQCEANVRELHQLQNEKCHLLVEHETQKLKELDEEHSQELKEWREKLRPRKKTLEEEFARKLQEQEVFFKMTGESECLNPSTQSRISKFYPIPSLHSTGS

[4] = target: T2, Mitogen-activated protein kinase kinase kinase 2 (Homo sapiens) (UniProt Q9Y2U5); details: at 10 µM
T2 sequence (whole entry): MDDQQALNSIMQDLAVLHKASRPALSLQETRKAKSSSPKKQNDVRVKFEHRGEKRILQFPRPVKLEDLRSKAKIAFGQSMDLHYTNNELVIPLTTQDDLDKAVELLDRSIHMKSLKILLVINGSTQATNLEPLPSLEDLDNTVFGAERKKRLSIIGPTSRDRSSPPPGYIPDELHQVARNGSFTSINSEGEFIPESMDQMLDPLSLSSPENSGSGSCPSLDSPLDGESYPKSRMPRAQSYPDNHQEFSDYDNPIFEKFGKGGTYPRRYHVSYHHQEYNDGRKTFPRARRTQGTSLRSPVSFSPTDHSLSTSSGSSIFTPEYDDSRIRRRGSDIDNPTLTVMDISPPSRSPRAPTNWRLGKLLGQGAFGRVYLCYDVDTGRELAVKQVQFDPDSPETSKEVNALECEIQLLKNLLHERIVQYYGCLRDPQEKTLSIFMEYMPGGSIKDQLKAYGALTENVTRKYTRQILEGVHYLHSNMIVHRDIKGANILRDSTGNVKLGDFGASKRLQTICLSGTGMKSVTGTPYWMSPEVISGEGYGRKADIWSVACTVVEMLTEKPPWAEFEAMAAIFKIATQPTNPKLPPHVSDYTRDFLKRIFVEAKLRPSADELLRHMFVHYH

[5] = target: T3, Mitogen-activated protein kinase kinase kinase 5 (Homo sapiens) (UniProt Q99683); assay: Selectivity interaction (Upstate Kinase Profiler service (Millipore)) EUB0000056c MAP3K5; details: at 1 µM
T3 sequence (whole entry): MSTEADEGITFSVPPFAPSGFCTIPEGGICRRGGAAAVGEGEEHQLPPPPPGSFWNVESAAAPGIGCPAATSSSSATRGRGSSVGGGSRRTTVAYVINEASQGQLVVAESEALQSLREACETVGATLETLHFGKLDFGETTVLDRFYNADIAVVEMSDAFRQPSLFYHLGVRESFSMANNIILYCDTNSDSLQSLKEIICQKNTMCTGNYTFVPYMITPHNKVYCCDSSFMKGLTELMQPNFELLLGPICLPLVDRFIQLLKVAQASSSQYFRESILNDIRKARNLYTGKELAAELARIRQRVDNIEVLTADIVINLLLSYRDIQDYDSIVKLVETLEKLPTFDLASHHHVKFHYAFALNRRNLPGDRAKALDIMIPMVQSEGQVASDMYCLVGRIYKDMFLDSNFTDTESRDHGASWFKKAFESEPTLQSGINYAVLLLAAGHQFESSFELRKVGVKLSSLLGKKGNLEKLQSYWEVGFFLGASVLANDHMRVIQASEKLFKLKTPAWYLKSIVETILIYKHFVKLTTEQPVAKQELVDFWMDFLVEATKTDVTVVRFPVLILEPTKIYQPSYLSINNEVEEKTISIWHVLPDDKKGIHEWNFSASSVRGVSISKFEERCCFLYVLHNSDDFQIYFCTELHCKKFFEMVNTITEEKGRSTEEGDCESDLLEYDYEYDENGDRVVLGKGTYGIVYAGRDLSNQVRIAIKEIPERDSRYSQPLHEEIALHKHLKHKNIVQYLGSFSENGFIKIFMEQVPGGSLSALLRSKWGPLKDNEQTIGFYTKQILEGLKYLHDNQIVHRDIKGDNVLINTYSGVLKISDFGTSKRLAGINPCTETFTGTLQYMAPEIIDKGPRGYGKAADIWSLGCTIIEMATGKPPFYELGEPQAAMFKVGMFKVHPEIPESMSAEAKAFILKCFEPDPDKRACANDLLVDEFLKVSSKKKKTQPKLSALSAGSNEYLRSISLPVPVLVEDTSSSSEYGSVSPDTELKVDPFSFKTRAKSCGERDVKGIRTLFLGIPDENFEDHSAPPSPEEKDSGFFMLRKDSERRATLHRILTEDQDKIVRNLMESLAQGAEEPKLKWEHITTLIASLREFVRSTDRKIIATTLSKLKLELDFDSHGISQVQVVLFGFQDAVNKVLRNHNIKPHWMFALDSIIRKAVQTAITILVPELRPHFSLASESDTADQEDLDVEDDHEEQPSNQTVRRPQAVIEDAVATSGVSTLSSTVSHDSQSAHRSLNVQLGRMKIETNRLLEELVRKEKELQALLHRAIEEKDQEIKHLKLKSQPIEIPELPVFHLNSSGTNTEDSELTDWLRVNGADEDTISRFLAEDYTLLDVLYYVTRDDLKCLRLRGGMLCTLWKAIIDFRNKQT

[6] = target: Serine/threonine-protein kinase/endoribonuclease IRE1 (Homo sapiens) (UniProt O75460); assay: Selectivity interaction (LanthaScreen Eu Kinase Binding Assay) EUB0001632a ERN1; details: at 10 µM
Sequence of Serine/threonine-protein kinase/endoribonuclease IRE1 (Homo sapiens) (O75460 19-977 limits assumed): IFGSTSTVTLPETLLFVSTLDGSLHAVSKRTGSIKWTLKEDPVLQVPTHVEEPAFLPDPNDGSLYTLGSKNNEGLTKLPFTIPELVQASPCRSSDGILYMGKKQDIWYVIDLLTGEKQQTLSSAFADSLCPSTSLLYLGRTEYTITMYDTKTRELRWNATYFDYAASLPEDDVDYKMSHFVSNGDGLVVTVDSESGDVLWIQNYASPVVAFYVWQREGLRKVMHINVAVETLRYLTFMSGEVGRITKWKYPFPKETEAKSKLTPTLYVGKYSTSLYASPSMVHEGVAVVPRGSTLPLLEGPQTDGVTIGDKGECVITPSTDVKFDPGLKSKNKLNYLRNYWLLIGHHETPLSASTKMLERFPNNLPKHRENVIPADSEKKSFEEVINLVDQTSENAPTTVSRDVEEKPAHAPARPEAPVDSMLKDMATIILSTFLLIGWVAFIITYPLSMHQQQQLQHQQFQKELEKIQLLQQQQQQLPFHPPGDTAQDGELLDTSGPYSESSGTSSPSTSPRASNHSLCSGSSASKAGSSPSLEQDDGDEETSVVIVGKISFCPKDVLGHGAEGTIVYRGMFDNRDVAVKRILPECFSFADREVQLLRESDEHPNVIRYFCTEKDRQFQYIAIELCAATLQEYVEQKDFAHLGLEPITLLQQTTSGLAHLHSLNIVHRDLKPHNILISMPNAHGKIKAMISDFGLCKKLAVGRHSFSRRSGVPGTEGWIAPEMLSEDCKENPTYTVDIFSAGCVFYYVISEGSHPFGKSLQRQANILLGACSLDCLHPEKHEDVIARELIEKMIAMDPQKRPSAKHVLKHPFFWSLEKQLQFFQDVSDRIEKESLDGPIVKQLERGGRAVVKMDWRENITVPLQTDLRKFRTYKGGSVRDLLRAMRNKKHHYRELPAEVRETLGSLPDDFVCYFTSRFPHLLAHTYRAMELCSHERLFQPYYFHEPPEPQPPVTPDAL

What does the source list for `O=C(NOC[C@H](O)CO)c1ccc(F)c(F)c1Nc1ccc(I)cc1F`?
% of control [1]: 100%; % of control [2]: 72%

With `Nc1cnc(N2CCc3cc(S(=O)(=O)Nc4c(F)cc(Cl)cc4F)cc(N4CCCC4=O)c32)nc1` [TP-020n] as the compound, how does the % of control (Ephrin type-A receptor 4) read?
The % of control was 100%.

What about the % of control [3] of the same compound?
The % of control was 100%.

`Cc1cc([C@@H](C)Nc2ccccc2C(=O)O)c2nc(N3CCOCC3)cc(=O)n2c1` [AZD-6482] was tested. Which % of control [4] did it give?
The % of control was 100%.

For `Cc1ccc(-c2ccc3c(ccc4sc5c(c43)NC[C@@H](C)NC5=O)n2)cn1`, which % of inhibition [5] is on record?
Its % of inhibition is 90%.

With `Cn1cc(-n2cnc3c(NCc4nc5cc(Cl)c(Cl)cc5[nH]4)nc(N4CCOCC4)nc32)cn1` as the compound, how does the % of inhibition [6] read?
The % of inhibition was -111%.
